Legend:
[1] = test system: calcium influx in human mast cells; assay: Calcium flux assay in antigen-stimulated human mast cells; type: cell-based; conditions: treated 2 hours, NP-BSA stimulation
Method: (§1) Human mast cells were derived from bone marrow CD34+ cells from six healthy donors for up to eight weeks by culturing CD34+ cells in StemSpan SFEM II (Stem Cell Technologies) supplemented with stem cell factor (SCF; 100 ng/mL; R&D System), IL-6 (R&D Systems), IL-3 (R&D Systems) and 1% penicillin/streptomycin (P/S; Gibco) for the first 10 days and in StemSpan SFEM II supplemented with SCF and IL-6 and 1% P/S for the remaining time in culture. […] Supernatant was collected and histamine levels were measured using a Histamine ELISA kit (Eagle Biosciences). […] Percent of activated mast cells was calculated as number of activated mast cells over the total number of mast cells.
Compound 128 Inhibits Calcium Signaling in Human Mast Cells. […] The median fluorescence intensity of cytosolic calcium was measured across the stimulation time period and graphed to represent the calcium influx profile. The area under the curve (AUC) of the calcium influx profile was calculated and normalized as a percent of stimulated control. […]

serum tryptase = assay: Serum tryptase in ISM patients; type: in vivo, human; conditions: 100 mg or 150 mg BID
Method: Also, blood samples were collected at the following timepoints: Cycle 1, Day 1: pre-dose (within 30 minutes prior to the morning dose), 0.5, 1.0, 2.0, 3.0, 4.0, and 6.0 hours (±15 minutes) post-morning dose. Cycle 1, Day 8: pre-dose (within 30 minutes prior to the morning dose) and 2 hours (±15 minutes) post-morning dose. Serum tryptase tests were conducted according to Example 14.
The measurement of serum tryptase can be followed to the procedure described in the literature (McMurray et al., Standardized indolent systemic mastocytosis evaluations across a health care system: implications for screening accuracy, Blood (2024) 144 (4): 408-419). Briefly, the procedure begins with proper patient preparation, avoiding recent physical activity or triggers that could cause mast cell activation. Venous blood samples, preferably drawn when the patient is not experiencing acute symptoms, are collected in serum separator tubes (SSTs) or plain red-top tubes, with approximately 5 mL of blood needed for analysis. After collection, the blood is allowed to clot at room temperature for 30-60 minutes before centrifugation for 10-15 minutes. The serum is then carefully separated from the cells and stored at 2-8° C. for short-term analysis or frozen at −20° C. or lower for long-term storage. […]

human mast cells [2] = assay: ISM-like mast cell chemotaxis towards conditioned media (Transwell); type: cell-based; conditions: ISM-like conditions, four healthy donors, treated two hours
Method: Human mast cells were differentiated from bone marrow CD34+ cells from four healthy donors as set forth in Example 4. Cells were used to produce conditioned media in ISM-like conditions. Conditioned media was the supernatant collected from mast cells cultured with stem cell factor (100 ng/mL), sensitized with NP-IgE (0.1 μg/mL) for 18 hours, treated with Compound 128 for two hours, and stimulated with NP-BSA (antigen; 0.1 μg/mL) for four hours. Migration of mast cells in the top chamber on Transwell […] inserts (Corning) towards the antigen-stimulated conditioned media in the bottom chamber was quantified after four hours using the CellTiter-Glo™ Luminescent Cell Viability Assay Kit (Promega). The amount of luminescence is correlated with live cell numbers. Fold change over the non-activated control was calculated.

[3] = test system: calcium influx in mast cell; assay: IgE-mediated calcium influx in ISM patient mast cells (FIG. 17); type: cell-based; conditions: presence of SCF
Method: Mast cell from an ISM patient was treated with Compound 128 at 50 mg, 75 mg, 100 mg, and 150 mg BID dose prior to antigen (Ag) stimulation. ISM 3-2 mast cell donor MC 1061-004 C1D8 D39. Experiments performed in the presence of SCF. […] Percent of Control (POC) based on Area-under-Curve above baseline (1st value).

mast cells = assay: Return of degranulation after Compound 128 exposure and washout (FIG. 18); type: cell-based; conditions: flow cytometry
From the text: FIGS. 18A-D show return of degranulation after Compound 128 exposure.

human mast cells [4] = assay: Antigen-induced degranulation (CD63 and histamine) in ISM-like human mast cells; type: cell-based; conditions: six healthy donors, treated two hours
Method: as §1
Human mast cells were differentiated from bone marrow CD34+ cells from six healthy donors, cultured and sensitized as set forth in Example 4. […] The median fluorescence intensity of phosphorylated BTK was measured. CD63 and histamine levels in these cells were measured and percent activated mast cells were calculated as set forth in Example 4. The percent of stimulated control for pBTK, activated mast cells (CD63+) and histamine levels was calculated. […]

C=CC(=O)N1CCC(F)(CNc2ncnc(N)c2-c2ccc(Oc3ccccc3)cc2)CC1 [Compound 128, 1-(4-(((6-amino-5-(4-phenoxyphenyl)pyrimidin-4-yl)amino)methyl)-4-fluoropiperidin-1-yl)prop-2-en-1-one]
mast cells undergoing calcium influx (AUC, percent of stimulated control) ([1]; ISM-like (+SCF) mast cells): less than 7%
mast cells undergoing calcium influx (AUC, percent of stimulated control) ([1]; healthy (−SCF) mast cells): < 3%
reduction in serum tryptase (serum tryptase): effective in reducing serum tryptase levels
chemoattractant activity of mast cells (chemotaxis towards conditioned media) (human mast cells [2]): inhibited
inhibition of IgE-mediated calcium influx [3]: potently inhibits
time to restoration of degranulation after inhibition (mast cells): ≤ 24 h
inhibition of IgE-mediated degranulation (CD63 and histamine) (human mast cells [4]): potently inhibits

— patent US12653827B2, “Methods of treating indolent systemic mastocytosis” (Telios Pharma Inc., priority 2024, dated 2026)
